According to PubChem BioAssay AID328 (DTP/NCI, 2004):
Several values for one entry are separate records, joined by “and”; a condition that tells them apart may be missing. Equal values may be shown once. Toxic doses and inconclusive results are not listed. How the source made its calls: active means survival T/C of 150% or more; inactive means T/C below 125% in these data.

Tested on: BDF1 mice, P388 leukemia ip, median survival T/C
Assay: NCI In Vivo Anticancer Drug Screen. Data for tumor model P388 Leukemia (intraperitoneal) in B6D2F1 (BDF1) mice
Details: endpoint: median survival time, higher = longer survival
Method in brief: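 T/C = treated-group survival ÷ vehicle-control survival; tumour transplanted into mice before dosing.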

[1] = dose: 100.0 mg/kg/injection, schedule: Q04DX003 (ip), vehicle: saline with Tween-80
[2] = dose: 400.0 mg/kg/injection, schedule: Q04DX003 (ip), vehicle: saline with Tween-80

Measured: T/C

O=C1NC(Cc2ccc(N(CCCl)CCCl)cc2)C(=O)O1 (configuration not stated)
active: dose: 0.12 mg/kg/injection, schedule: Q01DX009 (ip), vehicle: saline with Tween-80 150 % of control | dose: 0.25 mg/kg/injection, schedule: Q01DX009 (ip), vehicle: saline with Tween-80 159 % of control | dose: 0.5 mg/kg/injection, schedule: Q01DX009 (ip), vehicle: saline with Tween-80 168 % of control | dose: 0.8 mg/kg/injection, schedule: Q04DX003 (ip), vehicle: saline with Tween-80 154 % of control | dose: 1.0 mg/kg/injection, schedule: Q04DX003 (ip), vehicle: saline with Tween-80 163 % of control | dose: 1.3 mg/kg/injection, schedule: Q04DX003 (ip), vehicle: saline with Tween-80 159 % of control | dose: 2.0 mg/kg/injection, schedule: Q01DX009 (ip), vehicle: saline with Tween-80 230 % of control | dose: 2.0 mg/kg/injection, schedule: Q04DX003 (ip), vehicle: saline with Tween-80 168 % of control and 172 % of control | dose: 3.0 mg/kg/injection, schedule: Q04DX003 (ip), vehicle: saline with Tween-80 200 % of control | dose: 3.4 mg/kg/injection, schedule: Q04DX003 (ip), vehicle: saline with Tween-80 150 % of control | dose: 4.5 mg/kg/injection, schedule: Q04DX003 (ip), vehicle: saline with Tween-80 222 % of control | dose: 5.2 mg/kg/injection, schedule: Q04DX003 (ip), vehicle: saline with Tween-80 154 % of control | dose: 5.5 mg/kg/injection, schedule: Q01DX009 (ip), vehicle: saline with Tween-80 230 % of control | dose: 8.0 mg/kg/injection, schedule: Q01DX009 (ip), vehicle: saline with Tween-80 230 % of control | dose: 8.0 mg/kg/injection, schedule: Q04DX003 (ip), vehicle: saline with Tween-80 195 % of control | dose: 27.0 mg/kg/injection, schedule: Q04DX003 (ip), vehicle: saline with Tween-80 272 % of control (2×) and 207 % of control | dose: 40.0 mg/kg/injection, schedule: Q04DX003 (ip), vehicle: saline with Tween-80 157 % of control
inactive: dose: 0.06 mg/kg/injection, schedule: Q01DX009 (ip), vehicle: saline with Tween-80 104 % of control | dose: 0.2 mg/kg/injection, schedule: Q04DX003 (ip), vehicle: saline with Tween-80 100 % of control | dose: 0.3 mg/kg/injection, schedule: Q04DX003 (ip), vehicle: saline with Tween-80 112 % of control | dose: 0.5 mg/kg/injection, schedule: Q04DX003 (ip), vehicle: saline with Tween-80 112 % of control | dose: 12.0 mg/kg/injection, schedule: Q01DX009 (ip), vehicle: saline with Tween-80 115 % of control | dose: 60.0 mg/kg/injection, schedule: Q04DX003 (ip), vehicle: saline with Tween-80 119 % of control

CC[N+](CC)(CC)CC.N#C/C([SH2+])=C(/[SH2+])C#N.N#C/C([SH2+])=C(/[SH2+])C#N.[Fe+2]
inactive: dose: 1.56 mg/kg/injection, schedule: Q01DX009 (ip), vehicle: saline with Tween-80 105 % of control | dose: 3.12 mg/kg/injection, schedule: Q01DX009 (ip), vehicle: saline with Tween-80 110 % of control | dose: 3.5 mg/kg/injection, schedule: Q01DX001 (ip), vehicle: saline with Tween-80 100 % of control | dose: 6.25 mg/kg/injection, schedule: Q01DX009 (ip), vehicle: saline with Tween-80 110 % of control | dose: 7.0 mg/kg/injection, schedule: Q01DX001 (ip), vehicle: saline with Tween-80 95 % of control | dose: 9.2 mg/kg/injection, schedule: Q04DX003 (ip), vehicle: saline with Tween-80 100 % of control | dose: 14.0 mg/kg/injection, schedule: Q04DX003 (ip), vehicle: saline with Tween-80 95 % of control

CN1OCC2CCCC(c3ccccc3)C21 (configuration not stated)
inactive: dose: 50.0 mg/kg/injection, schedule: Q04DX003 (ip), vehicle: Klucel (hydroxypropylcellulose) (HPC) 100 % of control | dose: 100.0 mg/kg/injection, schedule: Q04DX003 (ip), vehicle: Klucel (hydroxypropylcellulose) (HPC) 100 % of control | dose: 200.0 mg/kg/injection, schedule: Q04DX003 (ip), vehicle: Klucel (hydroxypropylcellulose) (HPC) 100 % of control

O=C1NC(=O)C(Cc2ccccc2)(c2ccccc2)N1 (configuration not stated)
inactive: dose: 75.0 mg/kg/injection, schedule: Q01DX009 (ip), vehicle: saline with Tween-80 97 % of control | dose: 150.0 mg/kg/injection, schedule: Q01DX009 (ip), vehicle: saline with Tween-80 100 % of control

NC(=O)CC(NC(=O)CCl)C(=O)O (configuration not stated)
inactive: [1] 90 % of control | dose: 200.0 mg/kg/injection, schedule: Q04DX003 (ip), vehicle: saline with Tween-80 90 % of control | [2] 86 % of control

CC(=O)Oc1ccc(N2C(=O)C=CC2=O)cc1
inactive: dose: 1.56 mg/kg/injection, schedule: Q04DX003 (ip), vehicle: Klucel (hydroxypropylcellulose) (HPC) 100 % of control | dose: 3.12 mg/kg/injection, schedule: Q01DX009 (ip), vehicle: Klucel (hydroxypropylcellulose) (HPC) 104 % of control | dose: 3.12 mg/kg/injection, schedule: Q04DX003 (ip), vehicle: Klucel (hydroxypropylcellulose) (HPC) 100 % of control | dose: 6.25 mg/kg/injection, schedule: Q01DX009 (ip), vehicle: Klucel (hydroxypropylcellulose) (HPC) 104 % of control | dose: 6.25 mg/kg/injection, schedule: Q04DX003 (ip), vehicle: Klucel (hydroxypropylcellulose) (HPC) 100 % of control | dose: 9.2 mg/kg/injection, schedule: Q04DX003 (ip), vehicle: Klucel (hydroxypropylcellulose) (HPC) 90 % of control | dose: 12.5 mg/kg/injection, schedule: Q01DX009 (ip), vehicle: Klucel (hydroxypropylcellulose) (HPC) 109 % of control | dose: 14.0 mg/kg/injection, schedule: Q04DX003 (ip), vehicle: Klucel (hydroxypropylcellulose) (HPC) 95 % of control

O=C(/C=C/c1cccc(Br)c1)c1ccc(Cl)cc1
inactive: dose: 50.0 mg/kg/injection, schedule: Q01DX009 (ip), vehicle: other 120 % of control | dose: 50.0 mg/kg/injection, schedule: Q04DX003 (ip), vehicle: other 100 % of control | dose: 100.0 mg/kg/injection, schedule: Q01DX009 (ip), vehicle: other 120 % of control | dose: 100.0 mg/kg/injection, schedule: Q04DX003 (ip), vehicle: other 100 % of control | dose: 132.0 mg/kg/injection, schedule: Q01DX009 (ip), vehicle: other 100 % of control | dose: 200.0 mg/kg/injection, schedule: Q01DX009 (ip), vehicle: other 104 % of control | dose: 200.0 mg/kg/injection, schedule: Q04DX003 (ip), vehicle: other 90 % of control | dose: 300.0 mg/kg/injection, schedule: Q01DX009 (ip), vehicle: other 104 % of control

CNC(C)c1ccc(C)cc1 (configuration not stated)
inactive: dose: 6.25 mg/kg/injection, schedule: Q04DX003 (ip), vehicle: saline 100 % of control | dose: 12.5 mg/kg/injection, schedule: Q04DX003 (ip), vehicle: saline 104 % of control | dose: 25.0 mg/kg/injection, schedule: Q04DX003 (ip), vehicle: saline 100 % of control

CCOC(=O)CCN1CC(C)OC(C)C1 (configuration not stated)
inactive: dose: 100.0 mg/kg/injection, schedule: Q01DX009 (ip), vehicle: saline 100 % of control | dose: 200.0 mg/kg/injection, schedule: Q01DX009 (ip), vehicle: saline 109 % of control | dose: 400.0 mg/kg/injection, schedule: Q01DX009 (ip), vehicle: saline 100 % of control

C[C@]12C=CC(=O)C=C1CC[C@@H]1[C@@H]2[C@@H](O)C[C@@]2(C)[C@H]1CC[C@]2(O)C(=O)COC(=O)CCC(=O)O
inactive: dose: 66.0 mg/kg/injection, schedule: Q04DX003 (ip), vehicle: saline with Tween-80 113 % of control | [1] 113 % of control | dose: 150.0 mg/kg/injection, schedule: Q04DX003 (ip), vehicle: saline with Tween-80 108 % of control | dose: 200.0 mg/kg/injection, schedule: Q01DX009 (ip), vehicle: saline with Tween-80 118 % of control | dose: 400.0 mg/kg/injection, schedule: Q01DX009 (ip), vehicle: saline with Tween-80 118 % of control | [2] 104 % of control

CCCCCCCCCCSCCSCCSCCCCCCCCCC
inactive: dose: 25.0 mg/kg/injection, schedule: Q01DX001 (ip), vehicle: Klucel (hydroxypropylcellulose) (HPC) 100 % of control | dose: 50.0 mg/kg/injection, schedule: Q01DX001 (ip), vehicle: Klucel (hydroxypropylcellulose) (HPC) 100 % of control | dose: 100.0 mg/kg/injection, schedule: Q01DX001 (ip), vehicle: Klucel (hydroxypropylcellulose) (HPC) 100 % of control

O=C(CCl)NC(CO)C(=O)O (configuration not stated)
inactive: dose: 50.0 mg/kg/injection, schedule: Q04DX003 (ip), vehicle: saline 91 % of control | dose: 100.0 mg/kg/injection, schedule: Q04DX003 (ip), vehicle: saline 100 % of control | dose: 200.0 mg/kg/injection, schedule: Q04DX003 (ip), vehicle: saline 91 % of control
